The numbers were not newly measured in patent US20220003741A1, “ORAL WASH FOR ORAL FLUID COLLECTION AND ANALYSIS AND METHODS OF USE THEREOF” (priority 2018, published 2022), which cites them from elsewhere.

For data set [1] the following is noted: versus aripiprazole and dehydro aripiprazole.
Assay in data set [2]: not given
The source holds these as a separate data set.

With `CCCCCc1cc(O)c2c(c1)OC(C)(C)[C@@H]1CCC(C)=C[C@@H]21` [THC], under “feces”, the “fraction of THC excreted in the feces” value is given as “More than 55%”. Besides, where the note is “urine”, the “fraction of THC excreted in the urine” value is “approximately 20%”.

Turning to `O=C(O)CCCOc1ccc2c(c1)NC(=O)CC2` [OPC-3373], the “water solubility compared with parent compound aripiprazole and dehydro aripiprazole” value in data set [1] is “much more water soluble”. In the case of `CN1CCCC1c1cccnc1` (centres unmarked) [nicotine], in data set [2] (after inhalation, crosses the blood-brain barrier), the “time to reach the brain after inhalation” value was 10 to 20 s. Moreover, the “elimination half-life of nicotine in the body” value in data set [2] (in vivo) is given as “around two”.
